Experimental data: patent US8192962B2, “Processes for detecting toxic substances” (Daikin Industries, Ltd., priority 2001, dated 2012)

System: Transport facilitation protein genes
Assay: DNA chip mRNA expression in yeast, transport facilitation protein genes (Table 5)
Type: cell-based, Saccharomyces cerevisiae S288C
In short: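 S. cerevisiae S288C grown at 25° C in YPD were exposed in log phase for two hours to one toxic chemical at a growth-inhibiting, non-lethal concentration; untreated cells served as control. Poly(A) mRNA was reverse-transcribed with Cy3/Cy5-dUTP and hybridized to a whole-genome yeast DNA chip at 65° C for over 12 hours; values are fluorescence ratios versus untreated.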

Compound: Oc1cc(Cl)c(Cl)cc1Cl [(6), 2,4,5-trichlorophenol]
- The level of expressed mRNA in the presence of chemical substance/The level of expressed mRNA in the absence of chemical substance (yeast gene YGR281W): 1.9
- The level of expressed mRNA in the presence of chemical substance/The level of expressed mRNA in the absence of chemical substance (yeast gene YHL035C): 4.1
- The level of expressed mRNA in the presence of chemical substance/The level of expressed mRNA in the absence of chemical substance (yeast gene YHL040C): 7.3
- The level of expressed mRNA in the presence of chemical substance/The level of expressed mRNA in the absence of chemical substance (yeast gene YHL047C): 8.4
- The level of expressed mRNA in the presence of chemical substance/The level of expressed mRNA in the absence of chemical substance (yeast gene YHR026W): 1.3
- The level of expressed mRNA in the presence of chemical substance/The level of expressed mRNA in the absence of chemical substance (yeast gene YHR092C): 1.7
- The level of expressed mRNA in the presence of chemical substance/The level of expressed mRNA in the absence of chemical substance (yeast gene YHR094C): 1.6
- The level of expressed mRNA in the presence of chemical substance/The level of expressed mRNA in the absence of chemical substance (yeast gene YHR175W): 1.0
- The level of expressed mRNA in the presence of chemical substance/The level of expressed mRNA in the absence of chemical substance (yeast gene YIL006W): 0.3
- The level of expressed mRNA in the presence of chemical substance/The level of expressed mRNA in the absence of chemical substance (yeast gene YIL022W): 1.2
- The level of expressed mRNA in the presence of chemical substance/The level of expressed mRNA in the absence of chemical substance (yeast gene YIL056W): 1.0
- The level of expressed mRNA in the presence of chemical substance/The level of expressed mRNA in the absence of chemical substance (yeast gene YIL088C): 2.2
- The level of expressed mRNA in the presence of chemical substance/The level of expressed mRNA in the absence of chemical substance (yeast gene YJL034W): 1.1
- The level of expressed mRNA in the presence of chemical substance/The level of expressed mRNA in the absence of chemical substance (yeast gene YJL212C): 1.1
- The level of expressed mRNA in the presence of chemical substance/The level of expressed mRNA in the absence of chemical substance (yeast gene YJL219W): 1.5
- The level of expressed mRNA in the presence of chemical substance/The level of expressed mRNA in the absence of chemical substance (yeast gene YJR077C): 0.9
- The level of expressed mRNA in the presence of chemical substance/The level of expressed mRNA in the absence of chemical substance (yeast gene YJR106W): 1.2
- The level of expressed mRNA in the presence of chemical substance/The level of expressed mRNA in the absence of chemical substance (yeast gene YJR121W): 1.5
- The level of expressed mRNA in the presence of chemical substance/The level of expressed mRNA in the absence of chemical substance (yeast gene YKL016C): 0.8
- The level of expressed mRNA in the presence of chemical substance/The level of expressed mRNA in the absence of chemical substance (yeast gene YKL146W): 1.3
- The level of expressed mRNA in the presence of chemical substance/The level of expressed mRNA in the absence of chemical substance (yeast gene YKR039W): 2.8
- The level of expressed mRNA in the presence of chemical substance/The level of expressed mRNA in the absence of chemical substance (yeast gene YKR067W): 1.8
- The level of expressed mRNA in the presence of chemical substance/The level of expressed mRNA in the absence of chemical substance (yeast gene YLL028W): 1.7
- The level of expressed mRNA in the presence of chemical substance/The level of expressed mRNA in the absence of chemical substance (yeast gene YLL055W): 1.4
- The level of expressed mRNA in the presence of chemical substance/The level of expressed mRNA in the absence of chemical substance (yeast gene YLR081W): 0.9
- The level of expressed mRNA in the presence of chemical substance/The level of expressed mRNA in the absence of chemical substance (yeast gene YLR295C): 1.1
- The level of expressed mRNA in the presence of chemical substance/The level of expressed mRNA in the absence of chemical substance (yeast gene YLR348C): 1.9
- The level of expressed mRNA in the presence of chemical substance/The level of expressed mRNA in the absence of chemical substance (yeast gene YLR378C): 1.2
- The level of expressed mRNA in the presence of chemical substance/The level of expressed mRNA in the absence of chemical substance (yeast gene YMR011W): 0.6
- The level of expressed mRNA in the presence of chemical substance/The level of expressed mRNA in the absence of chemical substance (yeast gene YMR058W): 2.6
- The level of expressed mRNA in the presence of chemical substance/The level of expressed mRNA in the absence of chemical substance (yeast gene YMR162C): 1.0
- The level of expressed mRNA in the presence of chemical substance/The level of expressed mRNA in the absence of chemical substance (yeast gene YMR203W): 1.1
- The level of expressed mRNA in the presence of chemical substance/The level of expressed mRNA in the absence of chemical substance (yeast gene YNL055C): 2.6
- The level of expressed mRNA in the presence of chemical substance/The level of expressed mRNA in the absence of chemical substance (yeast gene YNL259C): 3.9
- The level of expressed mRNA in the presence of chemical substance/The level of expressed mRNA in the absence of chemical substance (yeast gene YNR072W): 0.9
- The level of expressed mRNA in the presence of chemical substance/The level of expressed mRNA in the absence of chemical substance (yeast gene YOL119C): 0.9
- The level of expressed mRNA in the presence of chemical substance/The level of expressed mRNA in the absence of chemical substance (yeast gene YOL156W): 1.2
- The level of expressed mRNA in the presence of chemical substance/The level of expressed mRNA in the absence of chemical substance (yeast gene YOL163W): 0.5
- The level of expressed mRNA in the presence of chemical substance/The level of expressed mRNA in the absence of chemical substance (yeast gene YOR035C): 1.9
- The level of expressed mRNA in the presence of chemical substance/The level of expressed mRNA in the absence of chemical substance (yeast gene YOR130C): 1.6
- The level of expressed mRNA in the presence of chemical substance/The level of expressed mRNA in the absence of chemical substance (yeast gene YOR153W): 7.4
- The level of expressed mRNA in the presence of chemical substance/The level of expressed mRNA in the absence of chemical substance (yeast gene YOR270C): 1.8
- The level of expressed mRNA in the presence of chemical substance/The level of expressed mRNA in the absence of chemical substance (yeast gene YOR273C): 0.4
- The level of expressed mRNA in the presence of chemical substance/The level of expressed mRNA in the absence of chemical substance (yeast gene YOR316C): 0.9
- The level of expressed mRNA in the presence of chemical substance/The level of expressed mRNA in the absence of chemical substance (yeast gene YOR328W): 2.9
- The level of expressed mRNA in the presence of chemical substance/The level of expressed mRNA in the absence of chemical substance (yeast gene YOR332W): 1.8
- The level of expressed mRNA in the presence of chemical substance/The level of expressed mRNA in the absence of chemical substance (yeast gene YOR348C): 0.7
- The level of expressed mRNA in the presence of chemical substance/The level of expressed mRNA in the absence of chemical substance (yeast gene YPL036W): 0.7
- The level of expressed mRNA in the presence of chemical substance/The level of expressed mRNA in the absence of chemical substance (yeast gene YPL134C): 1.2
- The level of expressed mRNA in the presence of chemical substance/The level of expressed mRNA in the absence of chemical substance (yeast gene YPL265W): 2.3
- The level of expressed mRNA in the presence of chemical substance/The level of expressed mRNA in the absence of chemical substance (yeast gene YPL271W): 3.3
- The level of expressed mRNA in the presence of chemical substance/The level of expressed mRNA in the absence of chemical substance (yeast gene YPR124W): 2.0
- The level of expressed mRNA in the presence of chemical substance/The level of expressed mRNA in the absence of chemical substance (yeast gene YPR192W): 0.9
- The level of expressed mRNA in the presence of chemical substance/The level of expressed mRNA in the absence of chemical substance (yeast gene YPR194C): 1.5
